According to PubChem BioAssay AID248 (DTP/NCI, 2004):
Values joined by “and” are separate entries in the source; they are usually repeats but may differ in a detail not shown here. Identical values can stand only once. Inconclusive results and toxic doses are left out.

Tested on: L1210 leukemia ip in BDF1 mice, survival T/C
Experiment: NCI In Vivo Anticancer Drug Screen. Data for tumor model L1210 Leukemia (intraperitoneal) in B6D2F1 (BDF1) mice
Details: endpoint: mean survival time, higher = longer survival
Procedure, shortened: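 Tumor was transplanted into mice, which were then dosed with test compound or vehicle alone. Survival was recorded for each group, and the treated figure was expressed relative to the control figure.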

[1] = dose: 100.0 mg/kg/injection, schedule: Q01DX001 (ip), vehicle: Klucel (hydroxypropylcellulose) (HPC)
[2] = dose: 100.0 mg/kg/injection, schedule: Q01DX009 (ip), vehicle: Klucel (hydroxypropylcellulose) (HPC)
[3] = dose: 100.0 mg/kg/injection, schedule: Q04DX003 (ip), vehicle: Klucel (hydroxypropylcellulose) (HPC)
[4] = dose: 200.0 mg/kg/injection, schedule: Q01DX001 (ip), vehicle: Klucel (hydroxypropylcellulose) (HPC)
[5] = dose: 200.0 mg/kg/injection, schedule: Q01DX009 (ip), vehicle: Klucel (hydroxypropylcellulose) (HPC)
[6] = dose: 200.0 mg/kg/injection, schedule: Q04DX003 (ip), vehicle: Klucel (hydroxypropylcellulose) (HPC)
[7] = dose: 400.0 mg/kg/injection, schedule: Q01DX001 (ip), vehicle: Klucel (hydroxypropylcellulose) (HPC)
[8] = dose: 400.0 mg/kg/injection, schedule: Q01DX009 (ip), vehicle: Klucel (hydroxypropylcellulose) (HPC)
[9] = dose: 50.0 mg/kg/injection, schedule: Q01DX001 (ip), vehicle: saline
[10] = dose: 200.0 mg/kg/injection, schedule: Q01DX001 (ip), vehicle: saline
[11] = dose: 400.0 mg/kg/injection, schedule: Q01DX001 (ip), vehicle: saline
[12] = dose: 100.0 mg/kg/injection, schedule: Q01DX009 (ip), vehicle: saline
[13] = dose: 200.0 mg/kg/injection, schedule: Q01DX009 (ip), vehicle: saline
[14] = dose: 400.0 mg/kg/injection, schedule: Q01DX009 (ip), vehicle: saline
[15] = dose: 100.0 mg/kg/injection, schedule: Q01DX001 (ip), vehicle: saline

Cc1cccc(C(O)c2cnc(C)n2Cc2ccccc2)c1 (stereo not given)
T/C [1]: 90 % of control
T/C [2]: 100 % of control and 86 % of control
T/C (dose: 100.0 mg/kg/injection, schedule: Q04DX002 (ip), vehicle: Klucel (hydroxypropylcellulose) (HPC)): 108 % of control and 89 % of control
T/C [3]: 92 % of control
T/C [4]: 100 % of control
T/C [5]: 97 % of control and 89 % of control
T/C (dose: 200.0 mg/kg/injection, schedule: Q04DX002 (ip), vehicle: Klucel (hydroxypropylcellulose) (HPC)): 96 % of control
T/C [6]: 96 % of control
T/C [7]: 97 % of control
T/C [8]: 93 % of control and 97 % of control
T/C (dose: 400.0 mg/kg/injection, schedule: Q04DX002 (ip), vehicle: Klucel (hydroxypropylcellulose) (HPC)): 93 % of control and 101 % of control
T/C (dose: 400.0 mg/kg/injection, schedule: Q04DX003 (ip), vehicle: Klucel (hydroxypropylcellulose) (HPC)): 94 % of control

O=C(Nc1cccc(O)c1)c1ccccc1Cl
T/C [2]: 96 % of control
T/C [5]: 97 % of control
T/C [8]: 92 % of control

CCSC1OC(COS(C)(=O)=O)C(OS(C)(=O)=O)C1NC(C)=O (stereo not given)
T/C (dose: 50.0 mg/kg/injection, schedule: Q01DX001 (ip), vehicle: carboxymethylcellulose (CMC)): 97 % of control
T/C (dose: 100.0 mg/kg/injection, schedule: Q01DX001 (ip), vehicle: carboxymethylcellulose (CMC)): 97 % of control
T/C (dose: 200.0 mg/kg/injection, schedule: Q01DX001 (ip), vehicle: carboxymethylcellulose (CMC)): 92 % of control
T/C (dose: 400.0 mg/kg/injection, schedule: Q01DX001 (ip), vehicle: carboxymethylcellulose (CMC)): 97 % of control

O=C(OC(c1ccccc1)c1ccccc1)C(CSC(c1ccccc1)(c1ccccc1)c1ccccc1)NC(c1ccccc1)(c1ccccc1)c1ccccc1 (stereo not given)
T/C [3]: 91 % of control
T/C [6]: 92 % of control

NC(=S)c1cn(C2OC(CO)C(O)C2O)c2ncncc12 (stereo not given)
T/C (dose: 100.0 mg/kg/injection, schedule: Q01DX005 (ip), vehicle: saline): 164 % of control
T/C (dose: 200.0 mg/kg/injection, schedule: Q01DX005 (ip), vehicle: saline): 167 % of control

CCN(CC)C(C)=O
T/C [9]: 87 % of control
T/C [10]: 86 % of control
T/C [11]: 86 % of control

CCCCCCOC(=O)/C=C(/C)OCCCCCC
T/C [12]: 97 % of control
T/C (dose: 100.0 mg/kg/injection, schedule: Q04DX003 (ip), vehicle: saline): 94 % of control
T/C [13]: 95 % of control
T/C (dose: 200.0 mg/kg/injection, schedule: Q04DX003 (ip), vehicle: saline): 96 % of control
T/C [14]: 92 % of control

S=c1cc[nH]c2[nH]ncc12
T/C (dose: 100.0 mg/kg/injection, schedule: Q04DX002 (ip), vehicle: DMSO): 94 % of control
T/C (dose: 200.0 mg/kg/injection, schedule: Q04DX002 (ip), vehicle: DMSO): 97 % of control

CC(C)C(C)/C=C\C(C)C1CCC2C3=CCC4CC(O)CCC4(C)C3CCC21C (stereo not given)
T/C [1]: 97 % of control
T/C [4]: 97 % of control
T/C [7]: 97 % of control

NC(=S)N/N=C/c1ccns1
T/C (dose: 100.0 mg/kg/injection, schedule: Q04DX002 (ip), vehicle: saline with Tween-80): 109 % of control
T/C (dose: 200.0 mg/kg/injection, schedule: Q04DX002 (ip), vehicle: saline with Tween-80): 97 % of control
T/C (dose: 400.0 mg/kg/injection, schedule: Q04DX002 (ip), vehicle: saline with Tween-80): 103 % of control

Cc1ccc2ccc(-c3ccccc3)nc2c1
T/C [15]: 96 % of control
T/C [12]: 93 % of control
T/C [10]: 105 % of control
T/C [13]: 90 % of control
T/C [11]: 109 % of control
T/C [14]: 92 % of control

CC(C)(C)NC(=O)Nc1cccc(C(=O)O)c1
T/C [2]: 97 % of control
T/C [5]: 109 % of control
T/C [8]: 101 % of control

c1cncc(Nc2c3ccccc3nc3ccccc23)c1
T/C [15]: 97 % of control
T/C [10]: 99 % of control
T/C [11]: 94 % of control

Nc1nncs1
T/C (dose: 3.75 mg/kg/injection, schedule: Q01DX015 (ip), vehicle: saline): 103 % of control
T/C (dose: 7.0 mg/kg/injection, schedule: Q03HX032 (ip), vehicle: saline): 107 % of control
T/C (dose: 7.5 mg/kg/injection, schedule: Q01DX015 (ip), vehicle: saline): 106 % of control
T/C (dose: 7.5 mg/kg/injection, schedule: Q01DX Z (ip), vehicle: carboxymethylcellulose (CMC)): 96 % of control
T/C (dose: 11.0 mg/kg/injection, schedule: Q03HX032 (ip), vehicle: saline): 119 % of control
T/C (dose: 12.5 mg/kg/injection, schedule: Q01DX009 (ip), vehicle: saline): 120 % of control
T/C (dose: 15.0 mg/kg/injection, schedule: Q01DX015 (ip), vehicle: saline): 109 % of control
T/C (dose: 15.0 mg/kg/injection, schedule: Q01DX Z (ip), vehicle: carboxymethylcellulose (CMC)): 114 % of control
T/C (dose: 16.0 mg/kg/injection, schedule: Q03HX032 (ip), vehicle: saline): 108 % of control
T/C (dose: 20.0 mg/kg/injection, schedule: Q01DX Z (ip), vehicle: carboxymethylcellulose (CMC)): 116 % of control
T/C (dose: 24.0 mg/kg/injection, schedule: Q03HX032 (ip), vehicle: saline): 124 % of control
T/C (dose: 25.0 mg/kg/injection, schedule: Q01DX009 (ip), vehicle: saline): 106 % of control
T/C (dose: 25.0 mg/kg/injection, schedule: Q01DX Z (ip), vehicle: carboxymethylcellulose (CMC)): 112 % of control
T/C (dose: 27.0 mg/kg/injection, schedule: Q01DX015 (ip), vehicle: saline): 123 % of control
T/C (dose: 32.0 mg/kg/injection, schedule: Q01DX009 (ip), vehicle: Klucel (hydroxypropylcellulose) (HPC)): 151 % of control
T/C (dose: 36.0 mg/kg/injection, schedule: Q03HX032 (ip), vehicle: saline): 156 % of control
T/C (dose: 50.0 mg/kg/injection, schedule: Q01DX009 (ip), vehicle: saline): 95 % of control
T/C (dose: 60.0 mg/kg/injection, schedule: Q01DX015 (ip), vehicle: saline): 151 % of control and 165 % of control and 166 % of control
T/C (dose: 64.0 mg/kg/injection, schedule: Q01DX009 (ip), vehicle: Klucel (hydroxypropylcellulose) (HPC)): 94 % of control and 112 % of control
T/C (dose: 90.0 mg/kg/injection, schedule: Q01DX015 (ip), vehicle: saline): 168 % of control
T/C (dose: 120.0 mg/kg/injection, schedule: Q01DX015 (ip), vehicle: saline): 171 % of control
T/C (dose: 128.0 mg/kg/injection, schedule: Q01DX009 (ip), vehicle: Klucel (hydroxypropylcellulose) (HPC)): 88 % of control and 90 % of control
T/C (dose: 135.0 mg/kg/injection, schedule: Q01DX015 (ip), vehicle: saline): 151 % of control
T/C (dose: 240.0 mg/kg/injection, schedule: Q01DX015 (ip), vehicle: saline): 116 % of control
T/C (dose: 270.0 mg/kg/injection, schedule: Q01DX001 (ip), vehicle: saline): 120 % of control
T/C (dose: 480.0 mg/kg/injection, schedule: Q01DX015 (ip), vehicle: saline): 107 % of control
T/C (dose: 500.0 mg/kg/injection, schedule: Q04DX003 (ip), vehicle: saline): 100 % of control
T/C (dose: 600.0 mg/kg/injection, schedule: Q01DX001 (ip), vehicle: saline): 124 % of control
T/C (dose: 1000.0 mg/kg/injection, schedule: Q04DX003 (ip), vehicle: saline): 163 % of control

O=C(CCl)NC1=C(Cl)C(=O)c2ccccc2C1=O
T/C (dose: 75.0 mg/kg/injection, schedule: Q01DX001 (ip), vehicle: saline): 93 % of control

CC(C)(C)C(O)(C(=O)O)C(C)(C)C
T/C [9]: 110 % of control
T/C [15]: 98 % of control
T/C [10]: 104 % of control
T/C [11]: 100 % of control
